Laboratory results published in PubChem BioAssay (NCI).
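Grown in 96-well plates, cells were treated for 48 hours with each compound at five concentrations. Insufficient inhibition: endpoint recorded as highest concentration tested. Here, GI50 denotes the concentration required for 50% inhibition of growth. TGI denotes the concentration required for complete inhibition of growth.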

How the values were obtained:
Assay in all cases: NCI tumour cell line growth inhibition, 48 h
[1] = tested on: NCI-H226 lung
[2] = tested on: RPMI-8226 leukemia
[3] = tested on: CAKI-1 renal
[4] = tested on: HOP-62 NSCLC
[5] = tested on: U251 CNS
[6] = tested on: A549 NSCLC
[7] = tested on: MOLT-4 leukemia
[8] = tested on: T-47D breast
[9] = tested on: 786-0 renal
[10] = tested on: SF-295 CNS
[11] = tested on: DU-145 prostate
[12] = tested on: SK-MEL-2 melanoma
[13] = tested on: MDA-MB-435
[14] = tested on: MCF7 breast
[15] = tested on: CCRF-CEM leukemia
[16] = tested on: RXF 393 renal
[17] = tested on: UACC-257 melanoma
[18] = tested on: HCT-15 colon
[19] = tested on: NCI-H522 lung
[20] = tested on: M14 melanoma
[21] = tested on: OVCAR-5 ovarian
[22] = tested on: EKVX NSCLC
[23] = tested on: SNB-75 CNS
[24] = tested on: ACHN renal
[25] = tested on: SW-620 colon
[26] = tested on: SK-OV-3 ovarian
[27] = tested on: K-562 leukemia
[28] = tested on: NCI-H23 lung
[29] = tested on: SR leukemia
[30] = tested on: BT-549 breast
[31] = tested on: SF-539 CNS
[32] = tested on: IGROV1 ovarian
[33] = tested on: HCC-2998 colon
[34] = tested on: A498 renal
[35] = tested on: SK-MEL-5 melanoma
[36] = tested on: HOP-92 NSCLC
[37] = tested on: MDA-MB-231 breast
[38] = tested on: NCI-H460 lung
[39] = tested on: OVCAR-4 ovarian
[40] = tested on: SF-268 CNS
[41] = tested on: MALME-3M melanoma
[42] = tested on: OVCAR-8 ovarian
[43] = tested on: LOX IMVI melanoma
[44] = tested on: KM12 colon
[45] = tested on: UO-31 renal
[46] = tested on: OVCAR-3 ovarian
[47] = tested on: HS 578T breast
[48] = tested on: SN12C renal
[49] = tested on: HL-60(TB) leukemia
[50] = tested on: PC-3 prostate
[51] = tested on: COLO 205 colon
[52] = tested on: NCI/ADR-RES ovarian
[53] = tested on: HCT-116 colon
[54] = tested on: SNB-19 CNS
[55] = tested on: HT29 colon
[56] = tested on: UACC-62 melanoma
[57] = tested on: TK-10 renal
[58] = tested on: SK-MEL-28 melanoma

Compound `Cc1cc(-c2ncc(-c3cccnc3)cc2/C=C/c2ccccc2)cnc1-c1cccnc1` has a GI50 [1] of 2.62 µM, a TGI [1] of 7.61 µM and a GI50 [2] of 2.53 µM. It also gave a TGI [2] of 16.7 µM, a GI50 [3] of 4.25 µM and a TGI [3] of over 100 µM. The GI50 [4] was 4.45 µM, the TGI [4] was 97.5 µM and the GI50 [5] was 4.54 µM. The TGI [5] was over 100 µM, the GI50 [6] was 3.92 µM and the TGI [6] was over 100 µM. It also gave a GI50 [7] of 1.47 µM, a TGI [7] of 5.99 µM and a GI50 [8] of 2.4 µM. For the same compound, the TGI [8] was over 30.8 µM, the GI50 [9] was 6.05 µM and the TGI [9] was over 100 µM. The GI50 [10] was 5.62 µM, the TGI [10] was 52.1 µM and the GI50 [11] was 3.35 µM. The TGI [11] was over 100 µM, the GI50 [12] was 4.93 µM and the TGI [12] was over 66.9 µM. The TGI [13] was over 100 µM, the GI50 [14] was 3.02 µM and the TGI [14] was over 100 µM. For the same compound, the GI50 [15] was 1.17 µM, the TGI [15] was 7.76 µM and the GI50 [16] was 4.13 µM. It also gave a TGI [16] of 75.3 µM, a GI50 [17] of 5.08 µM and a TGI [17] of over 100 µM. The GI50 [18] was 2.95 µM, the TGI [18] was over 100 µM and the GI50 [19] was 3.01 µM. It also gave a TGI [19] of 14.9 µM, a GI50 [20] of 4.24 µM and a TGI [20] of over 100 µM. The GI50 [21] was over 72.6 µM, the TGI [21] was over 100 µM and the GI50 [22] was 3.39 µM. The TGI [22] was over 100 µM, the GI50 [23] was 5.23 µM and the TGI [23] was over 63.4 µM. The GI50 [24] was 3.91 µM, the TGI [24] was over 100 µM and the GI50 [25] was 4.41 µM. It also gave a TGI [25] of over 100 µM, a GI50 [26] of 19.1 µM and a TGI [26] of over 100 µM. The GI50 [27] was 3.28 µM, the TGI [27] was over 100 µM and the GI50 [28] was 4.59 µM. The TGI [28] was over 100 µM, the GI50 [29] was 2.69 µM and the TGI [29] was over 28.5 µM. It also gave a GI50 [30] of 3.05 µM, a TGI [30] of 20.8 µM and a GI50 [31] of 11.5 µM. The TGI [31] was over 33.2 µM, the GI50 [32] was 5.39 µM and the TGI [32] was over 100 µM. For the same compound, the GI50 [33] was over 25.4 µM, the TGI [33] was over 100 µM and the GI50 [34] was 2.31 µM. The TGI [34] was over 30.9 µM, the GI50 [35] was 1.46 µM and the TGI [35] was 3.02 µM. It also gave a GI50 [36] of 2.96 µM, a TGI [36] of over 26 µM and a GI50 [37] of 4.76 µM. For the same compound, the TGI [37] was over 100 µM, the GI50 [38] was 2.28 µM and the TGI [38] was 5.27 µM. The GI50 [39] was over 21.1 µM, the TGI [39] was over 100 µM and the GI50 [40] was 5.81 µM. It also gave a TGI [40] of over 100 µM, a GI50 [41] of 2.81 µM and a TGI [41] of 16.9 µM. The GI50 [42] was 3.81 µM, the TGI [42] was over 100 µM and the GI50 [43] was 3.12 µM. For the same compound, the TGI [43] was 19.7 µM, the GI50 [44] was 3.3 µM and the TGI [44] was over 100 µM. For the same compound, the GI50 [45] was 2.27 µM, the TGI [45] was 9.04 µM and the GI50 [46] was 3.48 µM. It also gave a TGI [46] of 37.7 µM, a GI50 [47] of 3.39 µM and a TGI [47] of over 100 µM. For the same compound, the GI50 [48] was 3.59 µM, the TGI [48] was over 100 µM and the GI50 [49] was 2.35 µM. The TGI [49] was 12.3 µM, the GI50 [50] was 3.21 µM and the TGI [50] was over 100 µM. For the same compound, the TGI [51] was over 100 µM, the GI50 [52] was 3.62 µM and the TGI [52] was over 100 µM. For the same compound, the GI50 [53] was 4.22 µM, the TGI [53] was over 100 µM and the GI50 [54] was 5.32 µM. It also gave a TGI [54] of over 100 µM, a GI50 [55] of 3.52 µM and a TGI [55] of over 100 µM. It also gave a GI50 [56] of 3.91 µM, a TGI [56] of over 83.9 µM and a TGI [57] of over 100 µM. For the same compound, the GI50 [58] was over 20.2 µM and the TGI [58] was over 100 µM.

Work on `COc1ccc2nc(NNC(=O)c3cnccn3)c3cccn3c2c1` yielded a GI50 [1] of 0.428 µM, a TGI [1] of 6.82 µM and a GI50 [2] of 0.312 µM. It also gave a TGI [2] of over 100 µM, a GI50 [3] of 0.248 µM and a TGI [3] of 15.5 µM. It also gave a GI50 [4] of 0.118 µM, a TGI [4] of 20 µM and a GI50 [5] of 0.184 µM. It also gave a TGI [5] of 7.16 µM, a GI50 [6] of 0.269 µM and a TGI [6] of 14.3 µM. The GI50 [7] was 0.201 µM, the TGI [7] was over 100 µM and the GI50 [8] was 0.433 µM. For the same compound, the TGI [8] was 25.5 µM, the GI50 [9] was 0.321 µM and the TGI [9] was 5.61 µM. The GI50 [10] was 0.219 µM, the TGI [10] was 4.35 µM and the GI50 [11] was 0.283 µM. It also gave a TGI [11] of 26.7 µM, a GI50 [12] of 0.688 µM and a TGI [12] of over 100 µM. It also gave a GI50 [13] of 0.572 µM, a TGI [13] of over 100 µM and a GI50 [14] of 0.27 µM. It also gave a TGI [14] of 2.77 µM, a GI50 [15] of 0.0919 µM and a TGI [15] of over 100 µM. It also gave a GI50 [16] of 0.663 µM, a TGI [16] of 7.59 µM and a GI50 [17] of 0.689 µM. The TGI [17] was 7.62 µM, the GI50 [18] was 0.0611 µM and the TGI [18] was 2.46 µM. The GI50 [19] was 0.363 µM, the TGI [19] was 11.5 µM and the GI50 [20] was 0.208 µM. For the same compound, the TGI [20] was 2.85 µM, the GI50 [21] was 0.704 µM and the TGI [21] was over 100 µM. For the same compound, the GI50 [22] was 0.268 µM, the TGI [22] was 18.9 µM and the GI50 [23] was 0.408 µM. For the same compound, the TGI [23] was 9.31 µM, the GI50 [24] was 0.114 µM and the TGI [24] was 7.52 µM. The GI50 [25] was 0.315 µM, the GI50 [26] was 0.54 µM and the TGI [26] was 9.09 µM. For the same compound, the GI50 [27] was 0.351 µM, the TGI [27] was over 100 µM and the GI50 [28] was 0.545 µM. The TGI [28] was over 36 µM, the GI50 [29] was 0.121 µM and the TGI [29] was over 100 µM. It also gave a GI50 [30] of 0.857 µM, a TGI [30] of 21 µM and a GI50 [31] of 0.362 µM. For the same compound, the TGI [31] was 10.6 µM, the GI50 [32] was 0.132 µM and the TGI [32] was 2.32 µM. It also gave a GI50 [33] of 0.522 µM, a TGI [33] of over 52.5 µM and a GI50 [34] of 0.684 µM. For the same compound, the TGI [34] was 9.5 µM, the GI50 [35] was 0.537 µM and the TGI [35] was 4.39 µM. For the same compound, the GI50 [36] was 0.93 µM, the TGI [36] was 9.65 µM and the GI50 [37] was 0.833 µM. It also gave a TGI [37] of 17.6 µM, a GI50 [38] of 0.134 µM and a TGI [38] of 3.88 µM. For the same compound, the GI50 [39] was 0.171 µM, the TGI [39] was 5.07 µM and the GI50 [40] was 0.227 µM. It also gave a TGI [40] of 19.4 µM, a GI50 [41] of 0.639 µM and a TGI [41] of 15.4 µM. It also gave a GI50 [42] of 0.303 µM, a TGI [42] of over 47.3 µM and a GI50 [43] of 0.177 µM. The TGI [43] was 1.78 µM, the GI50 [44] was 0.321 µM and the TGI [44] was over 21 µM. The GI50 [45] was 0.11 µM, the TGI [45] was 4.98 µM and the GI50 [46] was 0.236 µM. The TGI [46] was over 22.3 µM, the GI50 [47] was 2.45 µM and the TGI [47] was over 59.9 µM. The GI50 [48] was 0.426 µM, the TGI [48] was 13.9 µM and the GI50 [49] was 0.27 µM. It also gave a GI50 [50] of 0.227 µM, a TGI [50] of over 100 µM and a GI50 [51] of 0.331 µM. For the same compound, the TGI [51] was 8.28 µM, the GI50 [52] was 0.207 µM and the TGI [52] was 2.09 µM. It also gave a GI50 [53] of 0.195 µM, a TGI [53] of 5.26 µM and a GI50 [54] of 0.35 µM. It also gave a TGI [54] of 28 µM, a GI50 [55] of 0.414 µM and a TGI [55] of over 67.1 µM. For the same compound, the GI50 [56] was 0.278 µM, the TGI [56] was 2.48 µM and the GI50 [57] was 0.329 µM. The TGI [57] was over 100 µM, the GI50 [58] was 0.382 µM and the TGI [58] was 29.8 µM.
